Laboratory results published in patent publication US7098307B2, “Neo-tryptophan” (Mayo Foundation for Medical Education and Research, priority 1998, dated 2006).
Where two headings read alike, the source gives them in different places. Square brackets hold non-standard residues; d marks the D form. Peptide text beside a SMILES is read from it. Ala(indol-4-yl) = N[C@@H](Cc1cccc2[nH]ccc12)C(=O)O; NMeR = CN[C@@H](CCCNC(=N)N)C(=O)O; Tle = CC(C)(C)[C@H](N)C(=O)O

Tests used:
human NTR1 [1] = target: T1, human NTR1 (Homo sapiens, UniProt P30989); assay: Competition binding with [3H]NT, membranes of CHO-K1 cells transfected with human NTR1
T1 construct: expressed in transfected cells; host or cells: CHO-K1
Method: (§1) CHO-K1 cells were stably transfected with nucleic acid encoding either the human NTR1 or the rat NTR1, and cultured in 150 mm petri plates with 35 mL of Dulbecco-modified Eagle's medium containing 100 μM minimal essential medium nonessential amino acids (GIBCO) supplemented with 5% (v/v) FetalClone II bovine serum product (Hyclone Labs, Logan, Utah). CHO cells (subculture 9–19) were harvested at confluency. Briefly, the medium from each plate was removed by aspiration, and the cells washed with 6 mL of 50 mM Tris-HCl (pH 7.4) and resuspended in 5–10 mL of Tris-HCl by scraping the cells with a rubber spatula. The resuspended cells were placed into a centrifuge tube and collected by centrifugation at 300× g for five minutes at 4° C. in a GPR centrifuge (Beckman Instruments, Fullerton, Calif.). The cellular pellet (in 50 mM Tris-HCl, 1 mM EDTA, pH 7.4) was stored at […] until radioligand binding was performed.
(§2) The supernatant was decanted and discarded, and the cellular pellet was resuspended in 2 mL of Tris-HCl, 1 mM EDTA (pH 7.4) followed by homogenization with a Brinkmann Polytron at setting 6 for ten seconds. Centrifugation was repeated as above and the supernatant was decanted and discarded. The resulting final cellular pellet was resuspended in 50 mM Tris-HCl, lmM EDTA, 0.1% bovine serum albumin, and 0.2 mM bacitracin.
(§3) Incubation was at 20° C. for 30 minutes. Each reaction was terminated by addition of cold 0.9% NaCl (5×1.5 mL) followed by rapid filtration through a GF/B filter strip that had been pretreated with 0.2% polyethylenimine.

human NTR1 [2] = target: T1, human NTR1; assay: PI turnover ([3H]IP1) in intact CHO-K1 cells, human NTR1; type: cell-based
Method: (§4) To measure PI turnover, intact CHO-K1 cells were harvested at about 80% confluency. Cells were detached from the petri plates by removal of culture medium followed by incubation of the cellular monolayer for 20 minutes at 37° C. with gentle shaking in a modified Puck's D1 solution containing 2 mM EGTA. […] Briefly, intact CHO cells were prelabeled with D-myo-[^3H]inositol (18.3 Ci/mmol) in the presence of lithium chloride (final concentration, 10 mM). […] For the experiments described herein, the stimulation time was 30 minutes, and the number of CHO cells per assay tube was 1.5×10^5.

rat NTR1 [3] = target: T2, rat NTR1 (Rattus norvegicus, UniProt P20789); assay: PI turnover ([3H]IP1) in intact CHO-K1 cells, rat NTR1; type: cell-based
T2 construct: expressed in transfected cells; host or cells: CHO-K1
Method: as §4

[4] = Degradation in human plasma (HPLC peak area); type: in vitro ADME; details: 25% plasma, 37° C., 0.5 mg/mL polypeptide; for half-life at 0.5 mg/mL: human, read-out: half-time, Plasma Human (converted)
Description: (§5) For the degradation studies, data were plotted in linear form as a semi-log plot with SigmaPlot for Windows Version 4.00. Linear regression on these plots provided the parameters used to calculate the half-time (t1/2) for degradation of each polypeptide. The correlation coefficient (R) for the linear regression was taken as a measure of the goodness-of-fit.

[5] = Degradation in rat intestinal preparation; type: in vitro ADME; details: pH 7.4, 37° C., read-out: half-time, Rat Intestinal Preparation (converted)
Method: For intestinal preparations, rats were sacrificed by decapitation, and the small intestines removed. The tissue was washed with ice-cold PBS (10 mM, pH 7.4). About […] of intestinal tissue was added to about 10 mL of PBS and homogenized using a Brinkman polytron homogenizer (setting 6). After homogenization, 10 mL of PBS was added to 10 mL of the intestinal homogenate. […] The supernatant was removed and stored at −20° C. until testing. Immediately before incubation with the polypeptide, the intestinal preparation was filtered through a 0.2 μm filter. Testing procedures were similar to those for the plasma tests.
as §5

[6] = Body temperature (hypothermia) in rats; details: for Peak BT change / time of Peak BT change: rats; for induction of hypothermia: intraperitoneal administration (NT64L 1 mg/kg)
[7] = Hot plate test (antinociception, % MPE) in rats; details: for induction of antinociception (hot plate): intraperitoneal administration (NT64L 1 mg/kg); for ED50 % MPE: intraperitoneal
rat NTR1 [8] = target: T2, rat NTR1; assay: Competition binding with [3H]NT, membranes of CHO-K1 cells transfected with rat NTR1
Method: as §1, §2, §3

[9] = Degradation in rat plasma (HPLC peak area); type: in vitro ADME; details: 25% plasma, 37° C., 0.5 mg/mL polypeptide, read-out: half-time, Plasma Rat (converted)
Description: as §5

adrenergic α1 receptors = assay: Radiolabeled competitive binding, human brain tissue, adrenergic α1
dopamine D2 receptors = target: T3, dopamine D2 receptors (Homo sapiens, UniProt P14416); assay: Radiolabeled competitive binding, human brain tissue, dopamine
T3 construct: Human brain tissue; from tissue; host or cells: human brain tissue

5HT2A receptor = 5HT2A receptor (Homo sapiens, UniProt P28223); assay: Competitive binding with [3H]ketanserin, human brain tissue; details: for competition with labeled ketanserin for binding at the 5HT2A receptor: human brain tissue
α2-adrenergic receptors = assay: Radiolabeled competitive binding, human brain tissue, adrenergic α2
Muscarinic = assay: Radiolabeled competitive binding, human brain tissue, muscarinic

| Compound | EC50 (human NTR1 [2]) | EC50 (rat NTR1 [3]) | half-life at 0.5 mg/mL [4] | half-life [5] | Peak BT change ([6]; 1 mg/kg intraperitoneal) | time of Peak BT change ([6]; 1 mg/kg intraperitoneal) | induction of hypothermia [6] | ED50 BT ([6]; intraperitoneal, @ 30 min) | time of Peak % MPE ([7]; 1 mg/kg intraperitoneal, rats) | induction of antinociception (hot plate) [7] | ED50 % MPE ([7]; @ 30 min) | Kd (human NTR1 [1]) | Kd (rat NTR1 [8]) | half-life at 0.5 mg/mL [9] | Kd (dopamine D2 receptors) | Peak % MPE ([7]; 1 mg/kg intraperitoneal, rats) | competition with labeled ketanserin for binding at the 5HT2A receptor (5HT2A receptor) | other results |
| --- | --- | --- | --- | --- | --- | --- | --- | --- | --- | --- | --- | --- | --- | --- | --- | --- | --- | --- |
| CN[C@@H](CCCNC(=N)N)C(=O)N[C@@H](CCCCN)C(=O)N1CCC[C@H]1C(=O)N[C@@H](Cc1c[nH]c2ccccc12)C(=O)N[C@H](C(=O)N[C@@H](CC(C)C)C(=O)O)C(C)(C)C [Eisai, reference compound] (H-[NMeR]KPW[Tle]L-OH; N-terminus and C-terminus assumed) | 300 nM | 3.1 nM | 460 h | 22 h | −2.9 @ ° C. | 60 min | did induce | 0.26 mg/kg | 90 min | did induce | 0.42 mg/kg |  |  |  |  |  |  | weaker at the human NT receptor compared to binding affinity at the rat receptor (human NTR1 [1]; binding): ~20 fold; weaker at the human NT receptor than at the rat NT receptor, PI turnover (human NTR1 [2]): ~100 fold; ED50 BT ([6]; intraperitoneal, @ 90 min): 0.12 mg/kg; peak reduction in body temperature ([6]; intraperitoneal, dose not restated): about 3 °C; ED50 % MPE ([7]; @ 90 min): 0.08 mg/kg |
| CC(C)C[C@H](NC(=O)[C@@H](NC(=O)[C@H](Cc1cccc2[nH]ccc12)NC(=O)[C@@H]1CCCN1C(=O)[C@H](CCCNC(=N)N)NC(=O)[C@H](N)CCCCN)C(C)(C)C)C(=O)O [NT66L] (H-[dK]RP[Ala(indol-4-yl)][Tle]L-OH; N-terminus and C-terminus assumed) | 10 nM | 1.9 ± 0.4 nM | 170 h |  | −3.0 @ ° C. | 240 min | did induce | 0.45 mg/kg | 120 min | did induce | 0.04 mg/kg | 3.7 ± 0.4 nM | 0.85 ± 0.09 nM | 350 h | 56000 nM | 100% @ | found to compete | Kd (adrenergic α1 receptors; read-out: Kd adrenergic α1): 38000 nM; Peak BT change ([6]; 5 mg/kg intraperitoneal): −5.0 @ ° C.; time of Peak BT change ([6]; 5 mg/kg intraperitoneal): 120 min; ED50 BT ([6]; intraperitoneal, @ 60 min): 0.18 mg/kg; peak reduction in body temperature (change) ([6]; oral, 20 mg/kg): −1.4 °C; time of peak reduction in body temperature ([6]; oral, 20 mg/kg): 30 min; Peak % MPE ([7]; 5 mg/kg intraperitoneal, rats): 100% @; time of Peak % MPE ([7]; 5 mg/kg intraperitoneal, rats): 330 min; ED50 % MPE ([7]; @ 60 min): 0.02 mg/kg; peak % MPE value ([7]; oral, 20 mg/kg): 40%; time of Peak % MPE ([7]; oral, 20 mg/kg): 60 min; Kd (5HT2A receptor): 8700 nM |
| CC[C@H](C)[C@H](NC(=O)[C@H](Cc1cccc2[nH]ccc12)NC(=O)[C@@H]1CCCN1C(=O)[C@H](CCCNC(=N)N)NC(=O)[C@H](N)CCCCN)C(=O)N[C@@H](CC(C)C)C(=O)O [NT67L] (H-[dK]RP[Ala(indol-4-yl)]IL-OH; N-terminus and C-terminus assumed) | 0.83 nM |  | 96 h | 0.77 h | −1.8 @ ° C. | 120 min | did induce |  | 90 min | did induce |  | 0.61 ± 0.06 nM | 0.21 ± 0.02 nM | 130 h | > 100000 nM | 70% @ | found to compete | reduction in binding affinity compared to NT64L (human NTR1 [1]; NT receptor binding): about six fold lower; half-time, Plasma Human [4]: about 96 hours; Kd (adrenergic α1 receptors; read-out: Kd adrenergic α1 receptors): 6900 nM; Kd (α2-adrenergic receptors): > 100000 nM; Kd (Muscarinic): > 100000 nM |
